Publication PMC9297976 (Journal of Applied Toxicology, 2021)

Tests used:
[1] = system: Japanese medaka (Oryzias latipes); test: Fish Short‐Term Reproduction Assay; type: in vivo; conditions: for GSI Female / GSI Male / HSI Female / HSI Male / Length Female / Length Male / Weight Female / Weight Male: completion of exposure
medaka ARβ (mArβ) [2] = target: T1, medaka ARβ (mArβ) (Oryzias latipes, UniProt D1MV73); test: Medaka ARβ reporter gene assay, agonist assay; type: cell-based, Japanese medaka (Oryzias latipes); conditions: MAC = 1.0 × 10^−4 M
T1 sequence (D1MV73 1-744): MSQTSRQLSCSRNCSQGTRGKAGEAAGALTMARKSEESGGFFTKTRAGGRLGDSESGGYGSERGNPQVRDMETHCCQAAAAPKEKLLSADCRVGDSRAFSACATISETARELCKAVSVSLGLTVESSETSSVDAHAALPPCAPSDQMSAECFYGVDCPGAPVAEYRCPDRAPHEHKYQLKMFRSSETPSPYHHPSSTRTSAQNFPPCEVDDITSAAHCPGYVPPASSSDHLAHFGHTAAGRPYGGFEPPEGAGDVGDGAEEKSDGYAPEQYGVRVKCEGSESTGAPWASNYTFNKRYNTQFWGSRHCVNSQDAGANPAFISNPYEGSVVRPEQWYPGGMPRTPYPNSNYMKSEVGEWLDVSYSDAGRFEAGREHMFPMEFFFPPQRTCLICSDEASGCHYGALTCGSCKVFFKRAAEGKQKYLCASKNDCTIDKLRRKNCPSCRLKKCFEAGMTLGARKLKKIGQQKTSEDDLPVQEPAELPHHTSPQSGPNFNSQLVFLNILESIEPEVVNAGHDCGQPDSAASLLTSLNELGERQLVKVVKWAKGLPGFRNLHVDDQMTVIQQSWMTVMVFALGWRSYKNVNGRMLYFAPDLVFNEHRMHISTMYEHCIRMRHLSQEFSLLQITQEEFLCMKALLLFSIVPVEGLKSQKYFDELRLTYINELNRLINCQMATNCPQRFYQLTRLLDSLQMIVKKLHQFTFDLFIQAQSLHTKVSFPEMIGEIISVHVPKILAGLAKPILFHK

medaka Esr1 (mEsr1) [3] = target: T2, medaka Esr1 (mEsr1) (Oryzias latipes, UniProt P50241); test: Medaka Esr1 reporter gene assay, antagonist assay; type: cell-based, Japanese medaka (Oryzias latipes)
T2 sequence (P50241 1-620): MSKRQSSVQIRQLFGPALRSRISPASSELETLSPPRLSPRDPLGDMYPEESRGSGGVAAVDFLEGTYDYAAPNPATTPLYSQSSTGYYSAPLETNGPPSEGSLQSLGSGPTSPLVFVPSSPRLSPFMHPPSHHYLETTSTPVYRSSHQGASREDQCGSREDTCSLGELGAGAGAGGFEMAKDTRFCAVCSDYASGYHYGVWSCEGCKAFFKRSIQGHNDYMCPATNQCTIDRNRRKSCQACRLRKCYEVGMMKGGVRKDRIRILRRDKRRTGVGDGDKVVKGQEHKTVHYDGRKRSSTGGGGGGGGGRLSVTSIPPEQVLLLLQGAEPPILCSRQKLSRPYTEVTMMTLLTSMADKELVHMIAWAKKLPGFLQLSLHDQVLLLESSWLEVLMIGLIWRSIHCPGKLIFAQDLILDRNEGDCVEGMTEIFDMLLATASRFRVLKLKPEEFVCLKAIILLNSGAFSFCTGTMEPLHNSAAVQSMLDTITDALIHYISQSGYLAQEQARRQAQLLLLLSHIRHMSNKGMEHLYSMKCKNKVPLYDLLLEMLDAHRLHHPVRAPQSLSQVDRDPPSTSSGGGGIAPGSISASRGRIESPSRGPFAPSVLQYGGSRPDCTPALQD

medaka ARβ (mArβ) [4] = target: T1, medaka ARβ (mArβ); test: Medaka ARβ reporter gene assay, antagonist assay; type: cell-based, Japanese medaka (Oryzias latipes); conditions: 11‐KT spiked at 50 nM (D); MAC = 1.0 × 10^−4 M
medaka Esr1 (mEsr1) [5] = target: T2, medaka Esr1 (mEsr1); test: cell-based; set-up: species or system Japanese medaka (Oryzias latipes); conditions: MAC = 1.0 × 10^−4 M
[6] = measured concentration 0.349 mg/L
[7] = measured concentration 1.02 mg/L

CCNc1nc(Cl)nc(NC(C)(C)C#N)n1 [CZ, Cyanazine]
Fertility rate ([1]; 0.349 mg/L measured, 21 d): 80 ± 19%
Hepatic VTG, female ([1]; 0.349 mg/L measured, 21 d): 2,550 ± 896 ng/mg‐liver
Hepatic VTG, male ([1]; 0.349 mg/L measured, 21 d): 0.5 ± 0.0 ng/mg‐liver
Mortality ([1]; 0.349 mg/L measured, 21 d): 4.2%
Mortality, number of dead fish ([1]; 0.349 mg/L measured, 21 d): 1
Number of fertilized eggs (per female per day) ([1]; 0.349 mg/L measured, 21 d): 12 ± 5.8
Number of total eggs (per female per day) ([1]; 0.349 mg/L measured, 21 d): 14 ± 5.1
SSC female (joint plates with papillary processes) ([1]; 0.349 mg/L measured, 21 d): 0 ± 0
SSC male (joint plates with papillary processes) ([1]; 0.349 mg/L measured, 21 d): 96 ± 5.9
Fertility rate ([1]; 1.02 mg/L measured, 21 d): 71 ± 20%
Hepatic VTG, female ([1]; 1.02 mg/L measured, 21 d): 2,860 ± 679 ng/mg‐liver
Hepatic VTG, male ([1]; 1.02 mg/L measured, 21 d): 0.5 ± 0.0 ng/mg‐liver
Mortality ([1]; 1.02 mg/L measured, 21 d): 8.3%
Mortality, number of dead fish ([1]; 1.02 mg/L measured, 21 d): 2
SSC female (joint plates with papillary processes) ([1]; 1.02 mg/L measured, 21 d): 0 ± 0
SSC male (joint plates with papillary processes) ([1]; 1.02 mg/L measured, 21 d): 94 ± 23
Change of hepatic VTG levels in females (in words) ([1]; 21 d): did not reduce
Fecundity, number of total eggs (in words) ([1]; 21 d): statistically significant decrease
LOECREPRO ([1]; LOEC on reproduction (fecundity and/or fertility)): 1,020 μg/L
minimal effective concentration ([1]; Oryzias latipes, 504 h, read-out: LOECmVTG): > 1.02 µg/mL
Fertility rate (in words) ([1]; chemicals with significant decrease of number of total eggs): no significant effect
LOECREPRO (reduction in fecundity or fertility) ([1]; concentrations without overt toxicity): 1,020 μg/L
LOECTOX ([1]; lowest observed effect concentration on mortality): ND (>1,020) μg/L
GSI Female [1, 6]: 8.3 ± 0.9%
GSI Male [1, 6]: 0.67 ± 0.11%
HSI Female [1, 6]: 3.4 ± 0.69%
HSI Male [1, 6]: 1.8 ± 0.18%
Length Female [1, 6]: 35.8 ± 1.0 mm
Length Male [1, 6]: 35.3 ± 1.1 mm
Weight Female [1, 6]: 515 ± 28 mg
Weight Male [1, 6]: 483 ± 50 mg
GSI Female [1, 7]: 7.6 ± 0.9%
GSI Male [1, 7]: 0.55 ± 0.08%
HSI Female [1, 7]: 3.5 ± 0.33%
HSI Male [1, 7]: 1.7 ± 0.14%
Length Female [1, 7]: 35.0 ± 1.0 mm
Length Male [1, 7]: 34.4 ± 0.8 mm
Weight Female [1, 7]: 470 ± 49 mg
Weight Male [1, 7]: 419 ± 40 mg
Agonistic activity (medaka ARβ (mArβ) [2]): NE (MAC = 1.0 × 10^−4 M)
IC50 (medaka Esr1 (mEsr1) [3]): 0.61 µM
Antagonistic activity on mEsr1 (in words) (medaka Esr1 (mEsr1) [3]; antagonist assays): inhibited the transcriptional activity on mEsr1 by E2
In vitro positive: aEsr (medaka Esr1 (mEsr1) [3]; mode of action in which IC50 or IC30 was obtained in RGA): aEsr
Antagonistic activity (medaka ARβ (mArβ) [4]): NE (MAC = 1.0 × 10^−4 M)^(D)
Agonistic activity (medaka Esr1 (mEsr1) [5]): NE (MAC = 1.0 × 10^−4 M)
